The record followed here is patent US10390536B2, “Methods, compounds and compositions for repelling insects and/or arachnids” (National Center for Scientific Research “Demokritos”, priority 2013, dated 2019).

What all share (format): in vivo
Test [1] relates to Anopheles gambiae s.l. Description: experimental hut field trial of spatial repellence, Anopheles. Conditions: single compound, 1 ml in open vial in MM-X trap. Here is the method: (§1) To test the effects of repellent compounds or compositions disclosed herein on mosquitoes in a controlled environment resembling actual living quarters and conditions, field trials with standardized experimental huts were conducted at Kainji Dam in North Central Nigeria.
(§2) Six such huts were built in a straight line, and the distance between huts was 11 meters. These huts follow a traditional square design, the walls are built with concrete blocks that are subsequently plastered with cement, each wall has a window. The ceiling is plywood and the roof is thatched with eaves that are open, thereby allowing free flow of air into and out of the hut, and thus entry and exit of mosquitoes. There is a door for entry and exit. Two opposing sides of each hut have window exit traps and screened verandas to capture mosquitoes leaving via the windows or eaves. Each hut is raised off the ground on a concrete platform and surrounded by a moat filled with water in order to prevent ants from entering. Each hut is fitted with a mattress and an untreated bed net for sleepers. These huts are similar in design and concept to those used previously elsewhere for studying mosquito behavior and measuring the efficacy of various mosquito control products or intervention methods in Tanzania and Gambia. For design parameters refer to WHOPES 2005. The huts are adjacent to a tributary of the River Niger at a distance of 10 km from the Kainji Dam site and face rice fields known to harbor permanent mosquito breeding sites. The mosquitoes endemic to this area of Nigeria are highly endophillic, that is, they rest mainly indoors.
(§3) Human volunteers that participated as sleepers in this field trial were provided with anti-malarial chemical prophylaxis on a weekly basis, and the protocols used herein were reviewed and approved by the Research Ethics Review Committee of the Nigerian Institute of Medical Research. Six male adult volunteers, aged between 25 and 35 years old, were recruited to sleep in the huts described above. Sleepers were allocated to huts randomly for each series of trials, and this randomization process occurred nightly. The volunteers entered the huts by 21:00 each night and remained inside the huts until 06:30 the following morning. Each morning, the windows were closed and the exit traps blocked with a piece of cloth to prevent mosquitoes that entered from exiting. The traps were then put in a freezer at −20° C. to kill all the mosquitoes before being emptied for identification. By means of a sucking aspirator the verandas and rooms were visually searched for live mosquitoes and any insects found were collected in labelled cups. A 10-minute search was conducted for each hut (room and veranda traps). The exit traps were emptied into a labelled cup and all the mosquitoes placed in the freezer at −20° C. for about 30 minutes before morphological identification.
(§4) The Mosquito Magnet trap Model-X (MM-X trap made by the firm formerly known as American Biophysics (ABC), USA) is a 12V battery operated counter-flow trap that was used as the repellent dispersing device to evaluate the efficacy of repellent compounds or compositions disclosed herein. Four compounds, carvacrol, cumin alcohol, ethyl cinnamate, and butyl cinnamate, were evaluated in comparison to DEET as a nonproprietary conventional repellent in a first experiment. The chemical compounds were provided in liquid form: carvacrol (98%), butyl cinnamate (98%), ethyl cinnamate (98%), cumin alcohol (97%) and DEET (97%). […]

For test [2], the system named is Culex spp. Nature of the test: experimental hut field trial of spatial repellence, Culex. The note with it: single compound, 1 ml in open vial in MM-X trap. Here is the method: as §1, §2, §3, §4
The test system of test [3] is Anopheles gambiae (Giles) ss strain 16CSS female mosquitoes. Description: warm body repellence assay (mosquito landings). Conditions: for repellent activity in the warm body assay (in words): candidate compounds, initially 1.0-5.0 μg/cm^2 (about 5-31.5 nmole/cm^2). As to the method: To test the behavior of female mosquitoes to an essential oil containing OBP binding components, a previously described repellence assay [Kröber et al. (2010). An In Vitro Assay for Testing Mosquito Repellents Employing a Warm Body and Carbon Dioxide as a Behavioral Activator. Journal of the American Mosquito Control Association 26(4) 381-386] was conducted that measures the number of mosquito landings on a warm surface onto which an essential oil containing at least one candidate compound was applied.
To conduct a repellency assay, a selected essential oil or ethanol negative control was applied to a warm body at a dose of about 3.8 μg/cm^2 and allowed to dry for 40 seconds in order to allow evaporation of the solvent before introduction into the test cage with mosquitoes. As positive control for repellence, DEET dissolved in ethanol was applied to the warm body at the same dose. The treated warm body in conjunction with a pulse of carbon dioxide was introduced into the test cage containing fifty Anopheles gambiae (Giles) ss strain 16CSS female mosquitoes that were 4-11 days old and the number of mosquito landings on the warm body occurring within a 2-minute period was counted. Each candidate compound was tested in five different cages (i.e., 250 female mosquitoes) in a randomized design, and the ethanol control and up to four candidate compounds were tested in each cage. Raw data on numbers of landings by mosquitoes were analyzed using a linear mixed model accounting for treatment, experimental day, the individual cage, the number of females per cage and the level of the carbon dioxide pulse in ppm using R (R Development Core Team, 2010) and the packages LME4 (Bates and Maechler, Ime4: Linear mixed-effects models using {S4} classes.{R} package version 0.999375-32, 2009) and NLME (Pinheiro et al, nlme: Linear and Nonlinear Mixed Effects Models, 2010; the R Development Core Team, R: A Language and Environment for Statistical Computing, 2010). Repellent values were calculated from counted landings on treatments versus the overall landings on pooled controls.
To test the behavior of female mosquitoes to a candidate compound identified in Example 5, behavioral assays were made using the identified compounds. The repellent assay was performed as described in Example 3, except that candidate compounds were dissolved in ethanol and tested initially at doses between 1.0 and 5.0 μg/cm^2 (about 5-31.5 nmole/cm^2) and, whenever necessary, at lower and/or higher doses as well. Besides the compounds identified in Example 5, compounds related to these were also tested including ethyl-cinnamate and butyl-cinnamate (Table 4).
To test the behavior of female mosquitoes to various combinations of candidate compounds identified in Example 6, repellence assays were made as in Example 3. These repellent assays were made to compare the effectiveness of the strongest repellent compounds identified in Example 6, including, without limitation, carvacrol, ethyl cinnamate, butyl cinnamate, and cumin alcohol with that of DEET.
The doses tested were 2, 4, 6 10 and 20 nmol/cm^2 for the single compounds. The binary 50:50 mixtures were tested at 2, 6, 10 and 20 nmol/cm^2, with each compound making up half the amount tested, so that, for example, the 2 nmol/cm^2 concentration in column A+B represents 1 nmol/cm^2 of A and 1 nmol/cm^2 of B in a binary mixture. DEET was also tested at 25 nmol (top response) and carvacrol was tested at the additional dose of 2.5 nmol (second from left within its column). As an indication, DEET at 20 nmol/cm^2=3.8 μg/cm^2. Mosquitoes were activated using a puff of CO2 from a gas tank upon introduction of the warm body into the test cage containing 50±5 A. gambiae females and mosquito landings were counted for 2 minutes. Each treatment (dose) was tested using five test cages, i.e. on a total of 250 female A. gambiae. […]

Setting [4] is: 2 nmol (per cm^2, total for mixtures, 50:50).
[5] abbreviates: 4 nmol (per cm^2, total for mixtures, 50:50).
The mark [6] stands for this setting: 6 nmol (per cm^2, total for mixtures, 50:50).
[7] abbreviates: 10 nmol (per cm^2, total for mixtures, 50:50).
Setting [8] is: 20 nmol (per cm^2, total for mixtures, 50:50).
Setting [9] is: Anopheles gambiae, 2 min, read-out: Median Repellency (%).

Read-outs that look alike come from different tables or passages of the source.

Turning to `CCN(CC)C(=O)c1cccc(C)c1` [DEET, N,N-diethyl-3-methylbenzamide, reference compound], the “mosquito counts on the inside walls of the huts (in words)” value in test [1] and in test [2] was “reduced mosquito counts on the inside walls” throughout. For the same molecule, the Median repellence % amounted to 2% in test [3] (setting [4]); 41% in test [3] (setting [5]); 80% in test [3] (setting [6]); 96% in test [3] (setting [7]); 98% in test [3] (setting [8]); 100% in test [3] (25 nmol (per cm^2)). For the same molecule, the median repellency (%) at 20 nmol/cm2 in test [3] (Anopheles gambiae, 2 min, 20 nmole per cm^2, read-out: Median Repellency (%)) was 98.5%.

For `Cc1ccc(C(C)C)cc1O` [carvacrol, 5-isopropyl-2-methylphenol], the “mosquito counts on the inside walls of the huts (in words)” value in test [1] and in test [2] was “reduced mosquito counts on the inside walls” in each case. In addition, the Median repellence % stood at 13% in test [3] (setting [4]); 55% in test [3] (setting [5]); 40% in test [3] (setting [6]); 59% in test [3] (setting [7]); 93% in test [3] (25 nmol (per cm^2)). The median repellency (%) at 25 nmol/cm2 in test [3] (setting [9]) was found to be 93.3%. Moreover, the “repellent activity in the warm body assay (in words)” value in test [3] is recorded as “activity comparable to DEET”. Besides, in test [3] (total concentration 2 nmole/cm^2), the “repellent activity (in words)” value was “retained repellent activity”.

For `CC(C)c1ccc(CO)cc1` [cumin alcohol], the “spatial repellent effect, induced exophily (in words)” value in test [1] (per night) and in test [2] (per night) was “significantly lower than that of DEET” throughout. Besides, the Median repellence % in test [3] (setting [4]) was −4%; in test [3] (setting [5]), 38%; in test [3] (setting [6]), 46%; in test [3] (setting [7]) it was 53%; in test [3] (setting [8]), 93%. In test [3] (setting [9]), the median repellency (%) at 20 nmol/cm2 was found to be 92.3%. In test [3], the “repellent activity in the warm body assay (in words)” value is “activity comparable to DEET”.
